Target: T1, motilin receptors located on the colon of mature rabbits (Oryctolagus cuniculus, UniProt G1T803)
T1 construct: The muscle tissues were homogenized in 10 volumes of buffer; from tissue; host or cells: rabbit colon smooth muscle, crude membrane homogenate
Experiment: Competition with radiolabeled (I125) porcine motilin for motilin receptors in rabbit colon membranes
Format: binding
Conditions: @ 50 nM; I125 motilin (porcine) 25-40 pM; rabbit colon smooth muscle membranes; 30 min at 30° C.
Experimental: The compounds of the invention were tested for their ability to compete with radiolabeled motilin (porcine) for the motilin receptors located on the colon of mature rabbits. The colon from mature New Zealand rabbits was removed, dissected free from the mucosa and serosa layers, and diced into small pieces. The muscle tissues were homogenized in 10 volumes of buffer (50 mM Tris-Cl, 10 mM MgCl2, 0.1 mg/mL bactracin, and 0.25 mM Peflabloc, pH 7.5) in a Polytron (29,000 rpm, 4×15 seconds). The homogenate was centrifuged at 1000×g for 15 min. and the supernatant discarded. The pellet was washed twice before being suspended in homogenizing buffer. This crude homogenate was then passed first through a 19 gauge needle then a 23 gauge needle to further suspend the material and stored at −80° C. […] The pellet was counted in the gamma counter to determine the percentage of […] motilin and thereby the percent inhibition of the test compound.
% inhibition was determined for some compounds by standard techniques: […]

T1 sequence (G1T803 1-400): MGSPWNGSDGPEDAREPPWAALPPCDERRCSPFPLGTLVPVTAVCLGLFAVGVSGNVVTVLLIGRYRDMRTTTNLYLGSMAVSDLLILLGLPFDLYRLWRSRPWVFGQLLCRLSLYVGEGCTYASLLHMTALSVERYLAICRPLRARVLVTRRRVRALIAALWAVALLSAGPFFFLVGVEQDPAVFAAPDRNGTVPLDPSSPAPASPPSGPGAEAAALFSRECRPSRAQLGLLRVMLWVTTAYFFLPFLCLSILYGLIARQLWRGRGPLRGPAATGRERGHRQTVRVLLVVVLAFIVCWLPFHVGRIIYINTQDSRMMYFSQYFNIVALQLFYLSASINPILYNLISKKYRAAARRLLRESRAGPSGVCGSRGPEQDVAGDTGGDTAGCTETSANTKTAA

3-Benzyl-3-trichloroacetamido-1-N[(3-(2-morpholinoethoxy)phenyl)amino]methylcyclohexene [Example 7]
% inhibition: 59%

O=C(Nc1ccccc1)N(CC1=CC(Cc2ccccc2)(NC(=O)C(Cl)(Cl)Cl)CCC1)c1cccc(OCCN2CCOCC2)c1 (centres unmarked) [Example 6, 3-Benzyl-3-trichloroacetamido-1-(N-phenylaminocarbonyl)-N-[(3-(2-morpholinoethoxy)phenyl)amino]methylcyclohexene]
% inhibition: 62%
